Test results as given in patent EP0429999A1, “Novel cephalosporins, process for their preparation and their use as medicaments” (BAYER AG, priority 1989, dated 1991).
In brackets after ≈: the same amount, converted by molar mass.

How the values were obtained:
Experiment in all cases: MIC (MHK), agar dilution on Iso-Sensitest agar, multipoint inoculator
Type in all cases: cell-based
Staph. epi. 25185 = conditions: strain Staph. epi. 25185; 37°C, read after ca. 20 h, ca. 10^4 colony-forming particles per inoculation point
Excerpt: (§1) Die minimalen Hemmkonzentrationen (MHK) wurden per Reihenverdünnungsverfahren auf Iso-Sensitest Agar (Oxoid) bestimmt. Für jede Prüfsubstanz wurde eine Reihe von Agarplatten hergestellt, die bei jeweils doppelter Verdünnung abfallende Konzentrationen des Wirkstoffes enthielten. Die Agarplatten wurden mit einem MultipointInokulator (Denley) beimpft. Zum Beimpfen wurden Übernachtkulturen der Erreger verwandt, die zuvor so verdünnt wurden, daß jeder Impfpunkt ca. 10^4 koloniebildende Partikel enthielt. Die beimpften Agarplatten wurden bei 37°C bebrütet, und das Keimwachstum wurde nach ca. 20 Stunden abgelesen. Der MHK-Wert (µg/ml) gibt die niedrigste Wirkstoffkonzentration an, bei der mit bloßem Auge kein Keimwachstum zu erkennen war.
(§2) MHK-Werte: Agarverdünnung/Multipoint

Klebs. 6097 = conditions: strain Klebs. 6097; 37°C, read after ca. 20 h, ca. 10^4 colony-forming particles per inoculation point
Excerpt: as §1, §2

Staph. aur. 25455 = conditions: strain Staph. aur. 25455; 37°C, read after ca. 20 h, ca. 10^4 colony-forming particles per inoculation point
Excerpt: as §1, §2

Enterococc. 27185 = conditions: strain Enterococc. 27185; 37°C, read after ca. 20 h, ca. 10^4 colony-forming particles per inoculation point
Excerpt: as §1, §2

E. coli A 261 = conditions: Escherichia coli, A261; strain E. coli A 261; 37°C, read after ca. 20 h, ca. 10^4 colony-forming particles per inoculation point
Excerpt: as §1, §2

Strept. faec. 27101 = conditions: strain Strept. faec. 27101; 37°C, read after ca. 20 h, ca. 10^4 colony-forming particles per inoculation point
Excerpt: as §1, §2

SMILES: C/C=C\C1=C(C(=O)O)N2C(=O)[C@@H](NC(=O)[C@H](N)c3cc4sc(N)nc4s3)[C@H]2SC1 [Beispiel 13a]
- MIC (Staph. epi. 25185): ≤ 0.25 µg/mL
- MIC (Klebs. 6097): 2 µg/mL (≈ 4.43 µM)
- MIC (Staph. aur. 25455): ≤ 0.25 µg/mL
- MIC (Enterococc. 27185): 2 µg/mL (≈ 4.43 µM)
- MIC (E. coli A 261): 4 µg/mL (≈ 8.86 µM)
- MIC (Strept. faec. 27101): 16 µg/mL (≈ 35.4 µM)
